Source: patent US11708562B2, “Differentiation of human embryonic stem cells” (Janssen Biotech, Inc., priority 2006, dated 2023)

Tests used:
[1] = tested on: human embryonic stem cell line H9; assay: PCR of definitive endoderm and other lineage markers after activin A, cells on mouse embryonic fibroblasts; type: cell-based; settings: 100 ng/ml activin A
From the text: The level of expression of definitive endoderm markers was examined by PCR (FIGS. 1A and 1B), FACS (results summarized in Table I), and immunohistochemistry (FIGS. 2A, 2B and 2C).
Cells were harvested at the time points indicated in FIGS. 3A, 3B, 3C and 3D and assayed by PCR for the expression of genes shown (FIGS. 3A, 3B, 3C, 3D, 4A, 4B, 5A and 5B).
RNA samples were purified by binding to a silica-gel membrane (Rneasy Mini Kit, Qiagen, CA) in the presence of an ethanol-containing, high-salt buffer followed by washing to remove contaminants. The RNA was further purified using a TURBO DNA-free kit (Ambion, INC), and high-quality RNA was then eluted in water. Yield and purity were assessed by A260 and A280 readings on a spectrophotometer. cDNA copies were made from purified RNA using an ABI (ABI, CA) high capacity cDNA archive kit.
Final data were expressed relative to a calibrator sample.

[2] = tested on: human embryonic stem cell line H9; assay: Formation of pancreatic endocrine cells expressing Nkx2.2 (PCR); type: cell-based; settings: activin A for the first three days of culture
Experimental: Cells were continuously cultured for another 3 to 5 days in basal medium with retinoic acid at 1 μM, alone or with bFGF. RNA samples were harvested from cells at various time points along this process to help evaluate the directed differentiation of the cells. Furthermore, culture medium and factors were regularly removed and replenished throughout the differentiation protocol.

Activin A: a member of the TGFβ superfamily; growth factor (R&D Systems) used to differentiate human embryonic stem cells
anterior endoderm markers Cerberus, Otx-1 and Hex genes [1]: significant up regulation | expression of extraembryonic endoderm markers Sox7 and AFP ([1]; up to seven days): time-dependent decrease | Pdx1 expression compared to samples containing no activin A [2]: maintained Pdx1 expression
